Reference: US7718641B2, “Pyrrolo [3,4-H] isoquinoline compounds and methods for modulating gated ion channels” (Aros Pharma ApS, priority 2005, dated 2010)

Legend:
[1] = system: rat dorsal root ganglion neurons; experiment: Patch clamp (current clamp) of acid-induced action potential generation in rat dorsal root ganglion neurons in primary culture; format: cell-based; conditions: 1 μM, current-clamp mode, n=3
Method: The acid-evoked action potentials were recorded in the presence and absence of Compound A (1 μM) or Compound H (1 μM) using the whole cell configuration of the patch clamp method (current clamp mode).
Sensory neurons can be isolated and cultured in vitro from different animal species. The most widely used protocols use sensory neurons isolated from neonatal (Eckert, et al. (1997) J Neurosci Methods 77:183-190) and embryonic (Vasko, et al. (1994) J Neurosci 14:4987-4997) rat. […] Electrophysiology is performed similarly as described above in Example 2. […] In the current-clamp mode, change in the trans-membrane potential are recorded. Under acidic conditions (e.g., pH 6.5) the membrane depolarizes, leading to the firing of action potentials, as shown in FIGS. 7A and 7B.

hASIC1a = target: T1, hASIC1a (Homo sapiens, UniProt P78348); experiment: Calcium-imaging (FLIPR, Fluo-4) of acid (MES)-induced calcium response in ASIC1a expressing HEK293 cells; format: cell-based; design: expressed in transfected cells; host or cells: HEK293; conditions: calcium mobilization assay, MES-induced calcium response, HEK293, n=3-7
T1 sequence (P78348 1-528): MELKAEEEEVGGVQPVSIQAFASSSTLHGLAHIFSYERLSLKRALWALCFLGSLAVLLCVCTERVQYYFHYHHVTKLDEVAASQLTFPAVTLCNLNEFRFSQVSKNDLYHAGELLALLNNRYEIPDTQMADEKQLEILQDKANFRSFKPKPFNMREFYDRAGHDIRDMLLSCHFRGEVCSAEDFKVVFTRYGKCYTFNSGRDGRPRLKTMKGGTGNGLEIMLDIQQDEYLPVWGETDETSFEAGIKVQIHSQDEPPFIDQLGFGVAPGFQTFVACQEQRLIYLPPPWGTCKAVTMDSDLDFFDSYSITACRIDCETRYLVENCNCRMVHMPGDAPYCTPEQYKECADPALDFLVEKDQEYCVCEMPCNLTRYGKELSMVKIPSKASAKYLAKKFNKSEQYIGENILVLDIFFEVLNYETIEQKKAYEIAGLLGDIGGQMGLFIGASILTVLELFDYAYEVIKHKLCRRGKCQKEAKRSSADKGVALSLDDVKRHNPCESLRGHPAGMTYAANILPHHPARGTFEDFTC
Method: ASIC1a expressing HEK293 cells are grown in culture medium (DMEM with 10% FBS), in polystyrene culture flasks ([…]) at 37° C. in a humidified atmosphere of 5% CO2. Confluency of cells should be 80-90% on day of plating. Cells are rinsed with 10 ml of PBS and re-suspended by addition of culture medium and trituration with a 25 ml pipette.
The cells are seeded at a density of approximately 1×10^6 cells/ml (100 μl/well) in black-walled, clear bottom, 96-well plates pre-treated with 10 mg/l poly-D-lysin (75 μl/well for ≧30 min). Plated cells were allowed to proliferate for 24 h before loading with dye.
Fluo-4/AM (1 mg, Molecular Probes) is dissolved in 912 μl DMSO. The Fluo-4/AM stock solution (1 mM) is diluted with culture medium to a final concentration of 2 μM (loading solution).
The culture medium is aspirated from the wells, and 50 μl of the Fluo-4/AM loading solution is added to each well. The cells are incubated at 37° C. for 30 min.
After the loading period, the loading solution is aspirated and the cells are washed twice with 100 μl modified Assay Buffer (145 mM NaCl, 5 mM KCl, 5 mM CaCl2, 1 mM MgCl2, 10 mM HEPES, pH 7.4) to remove extracellular dye. Following the second wash, 100 μl modified Assay Buffer is added to each well and the fluorescence is measured in FLIPR™ or FlexStation™ (Molecular Devices, USA), or any other suitable equipment known to the skilled in the art.
Temperature: Room temperature (20-22° C.)
First addition: 50 μl test solution at a rate of 30 μl/sec and a starting height of 100 μl.
Second addition: 50 μl MES solution (20 mM, 5 mM final concentration) at a rate of 35 μl/sec and a starting height of 150 μl.
Reading intervals: pre-incubation—10 sec×7 and 3 sec×3 antagonist phase—3 sec×17 and 10 sec×12
Addition plates (compound test plate and MES plate) are placed on the right and left positions in the FLIPR tray, respectively. Cell plates are placed in the middle position and the ASIC1a program is effectuated. FLIPR will then take the appropriate measurements in accordance with the interval settings above. Fluorescence obtained after stimulation is corrected for the mean basal fluorescence (in modified Assay Buffer).
The MES-induced peak calcium response, in the presence of test substance, is expressed relatively to the MES response alone. Test substances that block the MES-induced calcium response are re-tested in triplicates. Confirmed hits are picked for further characterization by performing full dose-response curves to determine potency of each hit compound as represented by the IC50 values (i.e., the concentration of the test substance which inhibits 50% of the MES-induced calcium response; see, for example, FIGS. 1A, 1B and 1C, and FIGS. 13A and 13B).

Structure (SMILES)	effect on acid-induced membrane depolarization and action potential firing [1]	IC50 (hASIC1a)
COc1ccc(F)cc1-c1cc2c(c3c1CCN(C)C3)NC(=O)/C2=N/O [Compound A, 5-(5-fluoro-2-methoxyphenyl)-6,7,8,9-tetrahydro-3-(hydroxyimino)-8-methyl-1H-pyrrolo[3,2-h]isoquinoline-2(3H)-one]	inhibit the acid-induced membrane depolarization and reduces the ensuing rate of action potential firing	100 to 200 nM
CCN1CCc2c(-c3ccccc3)cc3c(c2C1)NC(=O)/C3=N/O [Compound H, 5-phenyl-6,7,8,9-tetrahydro-3-(hydroxyimino)-8-ethyl-1H-pyrrolo[3,2-h]isoquinoline-2(3H)-one]	inhibit the acid-induced membrane depolarization and reduces the ensuing rate of action potential firing	15 to 250 nM
